In assay [1] the target is Inhibitor of nuclear factor kappa-B kinase subunit alpha (Homo sapiens) (UniProt O15111). Nature of the assay: Inhibition of recombinant human His-tagged full length IKKalpha expressed in baculovirus expression system at 0.1 uM incubated for 60 mins by Adapta assay relative to control.
Assay [2] addresses MAP kinase-activated protein kinase 2 (Homo sapiens) (UniProt P49137). In words: Inhibition of recombinant human His-tagged full length MAPKAPK2 expressed in Escherichia coli expression system using Ser/Thr 04 as substrate at 0.1 uM incubated for 60 mins by Z'-lyte assay relative to control.
Assay [3] deals with Serine/threonine-protein kinase B-raf (Homo sapiens) (UniProt P15056). Nature of the assay: Inhibition of recombinant human GST-tagged full length BRAF expressed in baculovirus expression system using Ser/Thr 03 as substrate at 0.1 uM incubated for 60 mins by Z'-Lyte assay relative to control.
The target in assay [4] is Angiopoietin-1 receptor (Homo sapiens) (UniProt Q02763). Nature of the assay: Inhibition of recombinant human GST-tagged TIE2 (817 to 1101 residues) expressed in baculovirus expression system using […] as substrate at 0.1 uM incubated for 60 mins by Z'-Lyte assay relative to control.
For assay [5], the target named is Tyrosine-protein kinase JAK1 (Homo sapiens, UniProt P23458). In words: biochemical.
Description: Inhibition of recombinant human JAK1 (854 to 1154 residues) expressed in insect cells using Y1-B as substrate incubated for 30 mins by microfluidic mobility shift assay
The target of assay [6] is T1, Tyrosine-protein kinase JAK2 (Homo sapiens, UniProt O60674).
Description: Inhibition of recombinant human JAK2 (812 to 1132 residues) expressed in insect cells using Y1-B as substrate incubated for 30 mins by microfluidic mobility shift assay
For assay [7], the target named is T1, Tyrosine-protein kinase JAK2. Nature of the assay: Inhibition of recombinant human GST-tagged JAK2 (809 to 1153 residues) expressed in baculovirus expression system using Tyr 06 as substrate at 0.1 uM incubated for 60 mins by Z'-lyte assay relative to control.
Assay [8] has as its target Tyrosine-protein kinase receptor UFO (Homo sapiens) (UniProt P30530). Nature of the assay: Inhibition of recombinant human GST-tagged full length AXL expressed in insect expression system using Tyr 06 as substrate at 0.1 uM incubated for 60 mins by Z'-Lyte assay relative to control.
Assay [9] has as its target Serine/threonine-protein kinase Sgk1 (Homo sapiens) (UniProt O00141). In words: Inhibition of recombinant human GST-tagged […] SGK1 (60 to 431 residues) expressed in baculovirus expression system using Ser/Thr 06 as substrate at 0.1 uM incubated for 60 mins by Z'-Lyte assay relative to control.
In assay [10] the target is Proto-oncogene tyrosine-protein kinase ROS (Homo sapiens) (UniProt P08922). Nature of the assay: Inhibition of recombinant human GST-tagged […] ROS1 (1883 to 2347 residues) expressed in baculovirus expression system using Tyr 01 as substrate at 0.1 uM incubated for 60 mins by Z'-Lyte assay relative to control.
In assay [11] the target is Protein kinase C beta type (Homo sapiens) (UniProt P05771). In words: Inhibition of recombinant human His-tagged full length PKCbeta1 expressed in insect expression system using Ser/Thr 07 as substrate at 0.1 uM incubated for 60 mins by Z'-lyte assay relative to control.
Assay [12] concerns the target Fibroblast growth factor receptor 4 (Homo sapiens) (UniProt P22455). In words: Inhibition of recombinant human His-tagged FGFR4 ([…]) expressed in baculovirus expression system using Tyr 04 as substrate at 0.1 uM incubated for 60 mins by Z'-Lyte assay relative to control.
Assay [13] deals with Epidermal growth factor receptor (Homo sapiens) (UniProt P00533). In words: Inhibition of recombinant human GST-tagged EGFR (668 to 1210 residues) expressed in baculovirus expression system using Tyr 4 as substrate at 0.1 uM incubated for 60 mins by Z'-Lyte assay relative to control.
The target in assay [14] is Leucine-rich repeat serine/threonine-protein kinase 2 (Homo sapiens, UniProt Q5S007). In words: Inhibition of recombinant human GST-tagged LRRK2 (970 to 2527 residues) expressed in baculovirus expression system using LRRKtide as substrate incubated for 60 mins by Adapta assay.

T1 sequence (O60674 whole entry, the tested form may be a part): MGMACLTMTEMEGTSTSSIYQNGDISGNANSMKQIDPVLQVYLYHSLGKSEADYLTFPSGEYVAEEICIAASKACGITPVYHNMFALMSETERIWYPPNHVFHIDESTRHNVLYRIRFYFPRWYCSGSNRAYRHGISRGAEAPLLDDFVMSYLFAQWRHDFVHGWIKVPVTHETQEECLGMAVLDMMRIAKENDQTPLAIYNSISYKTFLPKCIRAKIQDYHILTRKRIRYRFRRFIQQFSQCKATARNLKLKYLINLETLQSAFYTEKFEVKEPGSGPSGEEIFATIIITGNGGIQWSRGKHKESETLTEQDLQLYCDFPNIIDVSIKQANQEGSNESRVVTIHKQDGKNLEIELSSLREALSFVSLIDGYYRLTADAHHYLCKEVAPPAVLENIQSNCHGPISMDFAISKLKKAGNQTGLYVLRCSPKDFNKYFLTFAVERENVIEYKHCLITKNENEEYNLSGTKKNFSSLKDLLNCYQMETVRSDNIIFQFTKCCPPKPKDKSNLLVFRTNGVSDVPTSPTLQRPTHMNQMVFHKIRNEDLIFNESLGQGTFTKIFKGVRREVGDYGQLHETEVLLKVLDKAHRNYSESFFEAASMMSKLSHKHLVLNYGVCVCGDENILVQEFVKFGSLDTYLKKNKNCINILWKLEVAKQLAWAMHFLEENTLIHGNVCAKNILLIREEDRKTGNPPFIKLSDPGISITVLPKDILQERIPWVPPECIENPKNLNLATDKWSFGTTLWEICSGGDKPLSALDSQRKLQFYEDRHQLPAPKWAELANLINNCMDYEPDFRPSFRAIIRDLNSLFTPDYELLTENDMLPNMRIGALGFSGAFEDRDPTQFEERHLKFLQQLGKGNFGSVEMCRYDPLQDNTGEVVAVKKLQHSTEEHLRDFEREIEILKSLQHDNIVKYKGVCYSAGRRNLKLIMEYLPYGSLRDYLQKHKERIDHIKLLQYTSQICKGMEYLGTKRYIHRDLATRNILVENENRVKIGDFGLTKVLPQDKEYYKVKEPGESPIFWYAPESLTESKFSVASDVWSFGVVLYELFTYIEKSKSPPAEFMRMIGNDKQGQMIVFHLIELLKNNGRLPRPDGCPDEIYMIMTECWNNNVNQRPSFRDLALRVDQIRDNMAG
Sequence of MAP kinase-activated protein kinase 2 (Homo sapiens) (P49137 whole entry, looked up): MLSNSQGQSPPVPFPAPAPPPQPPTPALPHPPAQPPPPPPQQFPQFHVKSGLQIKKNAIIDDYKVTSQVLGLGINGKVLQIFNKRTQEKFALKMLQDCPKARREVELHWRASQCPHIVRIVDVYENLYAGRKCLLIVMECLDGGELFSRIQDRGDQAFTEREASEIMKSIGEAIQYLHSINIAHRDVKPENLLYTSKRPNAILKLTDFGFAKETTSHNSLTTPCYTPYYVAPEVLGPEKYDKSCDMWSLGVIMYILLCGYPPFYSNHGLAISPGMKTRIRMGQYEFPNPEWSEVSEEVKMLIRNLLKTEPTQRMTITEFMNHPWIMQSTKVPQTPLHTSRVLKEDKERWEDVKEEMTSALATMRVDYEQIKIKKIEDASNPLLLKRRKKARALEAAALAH
Sequence of Epidermal growth factor receptor (Homo sapiens) (P00533 whole entry, the tested form may be a part): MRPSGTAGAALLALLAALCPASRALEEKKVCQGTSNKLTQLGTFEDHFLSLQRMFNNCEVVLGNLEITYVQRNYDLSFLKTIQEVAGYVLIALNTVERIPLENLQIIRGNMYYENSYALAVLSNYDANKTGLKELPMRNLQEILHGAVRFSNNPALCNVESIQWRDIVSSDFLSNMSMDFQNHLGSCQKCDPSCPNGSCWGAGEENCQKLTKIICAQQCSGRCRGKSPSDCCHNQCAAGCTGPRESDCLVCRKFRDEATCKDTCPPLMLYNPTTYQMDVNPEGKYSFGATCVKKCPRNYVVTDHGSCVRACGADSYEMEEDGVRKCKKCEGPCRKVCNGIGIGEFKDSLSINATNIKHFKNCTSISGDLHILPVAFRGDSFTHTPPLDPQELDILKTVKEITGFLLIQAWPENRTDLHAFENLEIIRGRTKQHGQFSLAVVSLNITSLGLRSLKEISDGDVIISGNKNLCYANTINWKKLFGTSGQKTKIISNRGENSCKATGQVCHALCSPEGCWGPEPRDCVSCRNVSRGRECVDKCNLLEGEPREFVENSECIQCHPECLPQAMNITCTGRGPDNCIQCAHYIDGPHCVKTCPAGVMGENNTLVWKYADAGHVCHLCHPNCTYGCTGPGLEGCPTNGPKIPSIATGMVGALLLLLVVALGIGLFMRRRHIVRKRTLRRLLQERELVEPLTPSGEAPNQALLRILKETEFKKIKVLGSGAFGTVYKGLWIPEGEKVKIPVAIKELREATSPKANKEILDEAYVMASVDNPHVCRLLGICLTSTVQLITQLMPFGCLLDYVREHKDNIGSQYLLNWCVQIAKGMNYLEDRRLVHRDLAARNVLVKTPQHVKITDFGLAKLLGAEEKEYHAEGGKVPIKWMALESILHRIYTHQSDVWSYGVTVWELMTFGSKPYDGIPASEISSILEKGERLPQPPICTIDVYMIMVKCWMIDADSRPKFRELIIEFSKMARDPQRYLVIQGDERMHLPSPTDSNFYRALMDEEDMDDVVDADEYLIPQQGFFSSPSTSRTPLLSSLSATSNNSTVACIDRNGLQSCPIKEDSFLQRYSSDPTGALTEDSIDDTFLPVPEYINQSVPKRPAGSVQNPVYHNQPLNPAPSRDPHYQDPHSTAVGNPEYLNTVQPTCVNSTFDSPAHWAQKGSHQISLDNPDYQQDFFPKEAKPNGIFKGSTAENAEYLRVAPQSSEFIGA
Sequence of Protein kinase C beta type (Homo sapiens) (P05771 2-671 limits assumed): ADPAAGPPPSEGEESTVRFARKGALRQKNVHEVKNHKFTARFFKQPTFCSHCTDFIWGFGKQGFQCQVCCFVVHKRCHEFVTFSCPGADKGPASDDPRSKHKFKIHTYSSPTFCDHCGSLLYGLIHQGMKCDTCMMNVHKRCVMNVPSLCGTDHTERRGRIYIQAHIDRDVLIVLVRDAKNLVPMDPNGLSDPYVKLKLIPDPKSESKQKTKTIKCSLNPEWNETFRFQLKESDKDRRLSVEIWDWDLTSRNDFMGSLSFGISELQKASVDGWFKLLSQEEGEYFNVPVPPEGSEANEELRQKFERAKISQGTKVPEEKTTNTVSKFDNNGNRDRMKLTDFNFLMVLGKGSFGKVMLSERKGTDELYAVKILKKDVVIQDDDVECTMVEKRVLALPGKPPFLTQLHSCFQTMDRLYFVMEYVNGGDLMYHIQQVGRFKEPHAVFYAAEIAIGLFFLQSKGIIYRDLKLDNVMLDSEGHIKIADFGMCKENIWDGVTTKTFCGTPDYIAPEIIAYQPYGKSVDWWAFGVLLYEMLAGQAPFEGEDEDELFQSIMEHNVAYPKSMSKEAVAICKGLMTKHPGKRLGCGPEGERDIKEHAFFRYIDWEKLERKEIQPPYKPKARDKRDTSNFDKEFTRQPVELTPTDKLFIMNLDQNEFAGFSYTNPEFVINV
Sequence of Serine/threonine-protein kinase B-raf (Homo sapiens) (P15056 whole entry, the tested form may be a part): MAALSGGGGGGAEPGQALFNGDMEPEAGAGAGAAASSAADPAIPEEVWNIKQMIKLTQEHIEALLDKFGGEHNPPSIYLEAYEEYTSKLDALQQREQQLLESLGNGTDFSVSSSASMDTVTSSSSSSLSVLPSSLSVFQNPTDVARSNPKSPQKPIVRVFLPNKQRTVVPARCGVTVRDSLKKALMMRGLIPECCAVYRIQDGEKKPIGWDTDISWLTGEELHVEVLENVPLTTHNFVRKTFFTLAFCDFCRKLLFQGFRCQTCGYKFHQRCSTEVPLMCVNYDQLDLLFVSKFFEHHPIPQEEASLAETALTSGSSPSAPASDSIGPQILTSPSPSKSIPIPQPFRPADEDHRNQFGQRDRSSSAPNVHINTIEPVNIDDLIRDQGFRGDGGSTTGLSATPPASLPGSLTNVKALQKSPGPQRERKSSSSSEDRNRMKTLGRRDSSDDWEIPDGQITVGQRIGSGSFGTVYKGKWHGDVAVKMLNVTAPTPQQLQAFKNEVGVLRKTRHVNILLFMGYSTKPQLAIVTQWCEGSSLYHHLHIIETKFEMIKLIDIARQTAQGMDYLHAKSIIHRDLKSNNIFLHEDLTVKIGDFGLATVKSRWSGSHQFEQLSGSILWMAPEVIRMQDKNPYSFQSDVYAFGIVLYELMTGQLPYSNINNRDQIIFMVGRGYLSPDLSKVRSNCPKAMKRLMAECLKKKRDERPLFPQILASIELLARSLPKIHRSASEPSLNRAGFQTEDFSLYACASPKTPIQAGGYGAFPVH
Sequence of Fibroblast growth factor receptor 4 (Homo sapiens) (P22455 22-802 limits assumed): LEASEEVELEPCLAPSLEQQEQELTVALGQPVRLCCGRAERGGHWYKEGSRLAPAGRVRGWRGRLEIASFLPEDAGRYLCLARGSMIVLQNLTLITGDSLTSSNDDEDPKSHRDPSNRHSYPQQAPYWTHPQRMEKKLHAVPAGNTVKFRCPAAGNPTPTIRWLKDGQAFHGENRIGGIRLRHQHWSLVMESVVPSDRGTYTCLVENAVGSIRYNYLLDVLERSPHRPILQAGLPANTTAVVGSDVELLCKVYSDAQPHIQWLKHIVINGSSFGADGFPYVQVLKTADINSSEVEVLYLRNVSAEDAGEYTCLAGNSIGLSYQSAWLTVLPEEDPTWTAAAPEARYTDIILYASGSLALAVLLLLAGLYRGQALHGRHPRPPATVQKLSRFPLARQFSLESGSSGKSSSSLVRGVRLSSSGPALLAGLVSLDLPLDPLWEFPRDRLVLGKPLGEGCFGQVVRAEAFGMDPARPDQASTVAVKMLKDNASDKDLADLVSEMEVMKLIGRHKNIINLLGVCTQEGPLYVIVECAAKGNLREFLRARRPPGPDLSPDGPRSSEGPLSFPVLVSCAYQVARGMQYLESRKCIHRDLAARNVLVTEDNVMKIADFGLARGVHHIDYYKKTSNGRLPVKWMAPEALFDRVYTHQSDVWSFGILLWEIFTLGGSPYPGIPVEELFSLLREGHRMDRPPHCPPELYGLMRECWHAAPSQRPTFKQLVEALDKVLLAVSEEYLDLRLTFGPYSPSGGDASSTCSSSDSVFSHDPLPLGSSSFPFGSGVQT

The term inhibition denotes the drop in the measured response relative to a control, in per cent. As a reminder, the Ki is a dissociation constant, usually derived from enzyme kinetics or from competition with a known ligand. On to `Cn1cc(NC(=O)c2cnn3cccnc23)c(-c2cc(Cl)ccc2OC(F)F)n1`, for which the inhibition in assay [1] was -3%; in [2], 10%; in assay [3], 5%; in [4], 3%; in assay [7], 98%; in assay [8], 5%. Also, the inhibition in assay [9] turned out to be 7%; in [10] it was 62%; in assay [11], 2%; in assay [12], 5%; in assay [13], 2%. Also, the Ki was found to be 0.21 nM in assay [5] and 0.088 nM in [6].

By IC50 is commonly meant the midpoint of a concentration-inhibition curve. For the compound `O=C(Nc1c[nH]nc1-c1cc2ccccc2cc1OC(F)F)c1cnn2cccnc12`, the inhibition is 6% in assay [1]; 6% in assay [2]; 4% in assay [3]; 97% in [7]; 0% in assay [8]; -4% in assay [9]. The inhibition in [10] was 29%; in assay [11] it was 13%; in [12], 4%; in [13], 6%. For the same compound, the IC50 in [14] was 180 nM.

`O=C(Nc1c[nH]nc1-c1cc(Cl)ccc1OC(F)F)c1cnn2cccnc12`: the inhibition in [2] was 0%; in assay [3], 1%; in assay [4], 12%; in [10], 38%; in assay [11], 24%; in assay [12], -1%. Moreover, in assay [13], the inhibition came out at 0%. Moreover, in [14], the IC50 was determined as 18 nM. Moreover, the Ki turned out to be 0.21 nM in assay [5] and 0.071 nM in [6].

The values are drawn from ChEMBL document CHEMBL4665643 (Bioorg Med Chem Lett, 2019).
